Columns and labels:
Format in all cases: in vivo, human
[1] = test system: Caucasian and Asian volunteers; assay: Clinical assessment of pore size and shiny appearance in volunteers, once-daily topical application; details: after 28 days of treatment, extract at 2%, zinc gluconate 1%
Description: (§1) The principle of this evaluation is based on the clinical and instrumental analysis of samples of secretions of sebum using Sebutape™ patches according to the conventional method.
(§2) The products tested were: • the extract according to the invention prepared in accordance with Example 1 a) is tested at final concentrations of from 0.5% to 2% of extract 1 a) diluted in water • an aqueous solution of zinc gluconate at 1% (10 mg/mL; 2.2×10^−2 mol/L) in water is used as positive control • no solution as negative control
(§3) The following treatment was carried out for each of the products tested: Caucasian and Asian volunteers applied a test product once a day, in blind conditions. Clinical and instrumental assessments, by application of Sebutape™ patches, were carried out on D0, D14 and D28 and the contents of these samples of Sebutape™ patches were analysed quantitatively by image analyser (polarimetric imaging).
(§4) The experiment was conducted on Caucasian and Asian volunteers according to the conditions described in Example 3 for 28 days of treatment (last application on D27 in the evening). Assessments carried out on D30 allowed the persistence of the effect of an extract according to the invention on the production of sebum to be evaluated, two days after stopping the treatment.

[2] = test system: Caucasian and Asian volunteers; assay: Squalene content of sebum sampled with Sebutape patches (HPTLC, densitometry); details: after 28 days of treatment; zinc gluconate 1%; signed change
Description: as §1, §2, §3
Determination of the squalene taken in the Sebutape™ patches was carried out as follows:
The Sebutape™ patches were treated by extraction with 10 ml of ether. […]
The squalene spots were then quantified by densitometry using an instrument of the ChromatoScan CS-93 (Shimadzu) type. Reading was based on absorption at 450 nm and the area of the peaks was expressed in arbitrary units in the table of results given below.

[3] = test system: Caucasian and Asian volunteers; assay: Number of active sebaceous glands (number of spots on Sebutape patches, image analysis)
Description: as §1, §2
as §3, with “imaging). […]” for “imaging).”
as §4

Asian volunteers = assay: Self-evaluation of skin texture (refinement of skin grain) after stopping treatment; details: 2 days after stopping the treatment, extract at 2%, zinc gluconate positive control
Description: as §4
Results for skin texture: (self-evaluation)
Moreover, 2 days after stopping the treatment, 71% of the Asian volunteers who had applied the extract according to Example 1 a) at 2% declared that there was refinement of their skin grain (p<0.05). In comparison, only 52% of the volunteers in the group of volunteers who had applied the positive control (zinc gluconate) noticed an improvement in this parameter.

With zinc gluconate [Zinc gluconate 1%] the “Reduction of pore size (clinical assessment)” value [1] was 17.5%, the “Change of content of squalene in the sebum” value [2] was −14% and the “Active sebaceous glands, % Dn/D0, 2 days after D28” value ([3]; number of spots on Sebutape patches 2 days after stopping the treatment compared against D0) was −3.8%. The “Active sebaceous glands, % Dn/D0, D28” value ([3]; number of spots on Sebutape patches after 28 days compared against D0) was “+8.5%” and the “Volunteers who declared refinement of their skin grain (self-evaluation)” value (Asian volunteers) was 52%.

Reference: patent US20110244063A1, “NOVEL SEBUM SECRETION INHIBITORY AGENT” (BASF Beauty Care Solutions France S.A.S., priority 2008, published 2011)
